Tested on: Mugil cephalus
Test: Ovum maturation (vitellogenesis) of Mugil cephalus after implantation of sustained-release capsules
Format: in vivo
Settings: M. cephalus, implanted in May, diameter in October; preparation 400 μg, estradiol 1000 μg; FIG. 3
From the text: Additionally, a method for inducing vitellogenesis in fish can also be developed, by implanting the preparation of the present invention into body cavity or body wall of bony fish, for example in lateral muscle or abdomen cavity, in order to inducing the sexual maturation and vitellogenesis in the bony fish. With reference to FIG. 1, the preparation of the present invention is preferably implanted into lateral muscle adjacent to dorsal fin 21 of a bony fish 2 by an injector 1 in the present embodiment. Accordingly, the decapeptide in the preparation can be sustaining released into the bony fish for long-term inducing the hypophysis to synthesize and secrete gonadotropin (GtH) so that the vitellogenesis and breeding of the bony fish can be achieved.
Referring to FIG. 3, the responses of Mugil cephalus on decapeptide-induction are shown. In the present embodiment, several farming M. cephalus, are prepared and randomly assigned into five groups including (b1), (b2) ovaprin group, (b3) estradiol group, (b4) MixT group and (b5) control group. […] Moreover, ova of each group of M. cephalus are collected and analyzed monthly after implantation for monitoring the vitellogenesis in each group of M. cephalus. The ovum maturation of each group of M. cephalus is also determined in accordance with the size and accumulation of the ovum.

Q: How did the oocyte diameter turn out when `C[C@]12CC[C@@H]3c4ccc(O)cc4CC[C@H]3[C@@H]1CC[C@@H]2O` [estradiol] was run?
A: The oocyte diameter was “about 380 μm”.

Reference: patent US8536124B2, “Artificial decapeptide for inducing vitellogenesis in fish” (National Pingtung University of Science & Technology, priority 2010, dated 2013)
